Source: patent US7923438B2 (priority 2006, dated 2011)
Where two headings read alike, the source gives them in different places.

How the values were obtained:
Type in all cases: cell-based
[1] = system: Mycobacterium smegmatis (FH 6498); assay: Serial dilution test for MIC, Mueller-Hinton broth
[2] = system: S. aureus (control strain); assay: Serial dilution test for MIC, Mueller-Hinton broth (control strain)
[3] = system: Mycobacterium phlei (ATCC 1298); assay: microbe, parasite or virus in culture
[4] = system: Nocardia brasiliensis (ATCC 19296); assay: microbe, parasite or virus in culture
[5] = system: Nocardia abscessus (BAA 279); assay: microbe, parasite or virus in culture
[6] = system: Corynebacterium diphtheriae (ATCC 27010); assay: microbe, parasite or virus in culture
[7] = serial dilution, 48 hours at 37° C., approximately 10 Ex 6 CFU/ml
[8] = 6.25 μg per disc (17 nmol per disc), 48 hrs at 37° C.

CCCCCCCCCCCCCCCOP1(=O)OC[C@H]2COC(=O)C2=C(C)O1 (stereo partly shown) [Cyclipostin R]
minimum inhibitory concentration (MIC), Mycobacterium smegmatis (FH 6498) [1]: <0.5 | minimum inhibitory concentration (MIC), S. aureus (control strain) [2]: >64

CCCC1=C2C(=O)OC[C@@H]2COP(=O)(OCCCCCCCCCCCCCC(C)C)O1 (stereo partly shown) [Cyclipostin T2]
minimum inhibitory concentration (MIC), Mycobacterium smegmatis (FH 6498) [1]: <0.5 | minimum inhibitory concentration (MIC), S. aureus (control strain) [2]: >64 | Inhibition zone size, Mycobacterium phlei (ATCC 1298) [3]: 47 mm | Inhibition zone size, Nocardia brasiliensis (ATCC 19296) [4]: 39 mm | Inhibition zone size, Nocardia abscessus (BAA 279) [5]: 10 mm | Inhibition zone size, Corynebacterium diphtheriae (ATCC 27010) [6]: 20 mm

CCCCCCCCCCCCCCCCOP1(=O)OCC2COC(=O)C2=C(CCC)O1 (stereo not shown) [Cyclipostin T]
minimum inhibitory concentration (MIC), Mycobacterium smegmatis (FH 6498) [1, 7]: <0.5 | minimum inhibitory concentration (MIC), S. aureus (control strain) [2, 7]: >64 | zone of inhibition at 20 µg/disc ([3]; Mycolicibacterium phlei, ATCC1298, 20 μg per disc, 48 hrs at 37° C., read-out: Inhibition zone size, Mycobacterium phlei (ATCC 1298)): 30 mm | zone of inhibition at 20 µg/disc ([4]; Nocardia brasiliensis, ATCC19296, 20 μg per disc, 48 hrs at 37° C., read-out: Inhibition zone size, Nocardia brasiliensis (ATCC 19296)): 38 mm | zone of inhibition at 20 µg/disc ([5]; Nocardia abscessus, BAA279, 20 μg per disc, 48 hrs at 37° C., read-out: Inhibition zone size, Nocardia abscessus (BAA 279)): 9 mm | zone of inhibition at 20 µg/disc ([6]; Corynebacterium diphtheriae, ATCC27010, 20 μg per disc, 48 hrs at 37° C., read-out: Inhibition zone size, Corynebacterium diphtheriae (ATCC 27010)): 12 mm

CO[C@H]1/C=C/O[C@@]2(C)Oc3c(C)c(O)c4c(O)c(c(/C=N/N5CCN(C)CC5)c(O)c4c3C2=O)NC(=O)/C(C)=C\C=C\[C@H](C)[C@H](O)[C@@H](C)[C@@H](O)[C@@H](C)[C@H](OC(C)=O)[C@@H]1C [Rifampicin, reference compound]
zone of inhibition at 30 µg/disc ([3]; Mycolicibacterium phlei, ATCC1298, 30 μg per disc (36 nmol per disc), 48 hrs at 37° C., read-out: Inhibition zone size, Mycobacterium phlei (ATCC 1298)): 55 mm | zone of inhibition at 30 µg/disc ([4]; Nocardia brasiliensis, ATCC19296, 30 μg per disc (36 nmol per disc), 48 hrs at 37° C., read-out: Inhibition zone size, Nocardia brasiliensis (ATCC 19296)): 10 mm | zone of inhibition at 30 µg/disc ([5]; Nocardia abscessus, BAA279, 30 μg per disc (36 nmol per disc), 48 hrs at 37° C., read-out: Inhibition zone size, Nocardia abscessus (BAA 279)): 12 mm | zone of inhibition at 30 µg/disc ([6]; Corynebacterium diphtheriae, ATCC27010, 30 μg per disc (36 nmol per disc), 48 hrs at 37° C., read-out: Inhibition zone size, Corynebacterium diphtheriae (ATCC 27010)): 47 mm

CCCCCCCCCCCCCCCCOP1(=O)OC[C@H]2COC(=O)C2=C(C)O1 (stereo partly shown) [Cyclipostin P]
minimum inhibitory concentration (MIC), Mycobacterium smegmatis (FH 6498) [1]: <0.5 | minimum inhibitory concentration (MIC), S. aureus (control strain) [2]: >64 | Inhibition zone size, Mycobacterium phlei (ATCC 1298) [3]: 35 mm | Inhibition zone size, Nocardia brasiliensis (ATCC 19296) [4]: 47 mm | Inhibition zone size, Nocardia abscessus (BAA 279) [5]: 28 mm | Inhibition zone size, Corynebacterium diphtheriae (ATCC 27010) [6]: 10 mm

CC1(C)S[C@@H]2[C@H](NC(=O)Cc3ccccc3)C(=O)N2[C@H]1C(=O)O [Penicillin G, reference compound]
Inhibition zone size, Mycobacterium phlei (ATCC 1298) [3, 8]: 0 mm | Inhibition zone size, Nocardia brasiliensis (ATCC 19296) [4, 8]: 0 mm | Inhibition zone size, Nocardia abscessus (BAA 279) [5, 8]: 16 mm | Inhibition zone size, Corynebacterium diphtheriae (ATCC 27010) [6, 8]: 33 mm
